These results are taken from patent US11919893B1, “7-(4-((5-(2-bromobenzylideneamino)-2-thioxo-1,3,4-thiadiazol-3(2H)-yl)methyl) piperazin-1-yl)-1-cyclopropyl-6-fluoro-4-oxo-1,4-dihydroquinoline-3-carboxylic acid as an anti-inflammatory compound” (KING FAISAL UNIVERSITY, priority 2023, dated 2024).

The assay concerns the target Bovine serum albumin (Bos taurus, UniProt P02769). Briefly: Bovine serum albumin (BSA) protein denaturation assay, in vitro anti-inflammatory activity. The class given is biochemical. Here is the method:
Bovine Serum Albumin Assay (BSA) In vitro-inflammatory activities of the tested samples were determined using a modified method of the BSA assay reported by Williams et al. BSA solution (0.4%, w/v) was prepared in Tris Buffered Saline. The pH was adjusted to 6.4 with glacial acetic acid. Different dilutions of 20, 40, 60, 80, and 100 μg/mL of 7-(4-((5-(2-bromobenzylideneamino)-2-thioxo-1,3,4-thiadiazol-3(2H)-yl)methyl)piperazin-1-yl)-1-cyclopropyl-6-fluoro-4-oxo-1,4-dihydroquinoline-3-carboxylic acid (IV) the stock solutions were added to test tubes containing 1 mL of 0.4%, w/v BSA buffer solution. Both negative (solvent) and positive (aspirin) controls were assayed in a similar manner. The solutions were then heated in a water bath at 72° C. for 10 minutes and cooled for 20 minutes under laboratory conditions. The turbidity of the solutions (level of protein precipitation) was measured at 660 nm in Spectrophotometer (V-770 UV-Visible/NIR Spectrophotometer). The percentage inhibition of precipitation (protein denaturation) was determined relative to the negative control using the following equation: [formula] % Anti-Denaturation Activity=% Inhibition of Protein Denaturation=% Anti-inflammatory Activity

Where [1] appears, read: read-out: % Inhibition of protein denaturation (Bovine serum albumin).

SMILES strings stand for the structures.

Sequence of Bovine serum albumin (P02769 25-607): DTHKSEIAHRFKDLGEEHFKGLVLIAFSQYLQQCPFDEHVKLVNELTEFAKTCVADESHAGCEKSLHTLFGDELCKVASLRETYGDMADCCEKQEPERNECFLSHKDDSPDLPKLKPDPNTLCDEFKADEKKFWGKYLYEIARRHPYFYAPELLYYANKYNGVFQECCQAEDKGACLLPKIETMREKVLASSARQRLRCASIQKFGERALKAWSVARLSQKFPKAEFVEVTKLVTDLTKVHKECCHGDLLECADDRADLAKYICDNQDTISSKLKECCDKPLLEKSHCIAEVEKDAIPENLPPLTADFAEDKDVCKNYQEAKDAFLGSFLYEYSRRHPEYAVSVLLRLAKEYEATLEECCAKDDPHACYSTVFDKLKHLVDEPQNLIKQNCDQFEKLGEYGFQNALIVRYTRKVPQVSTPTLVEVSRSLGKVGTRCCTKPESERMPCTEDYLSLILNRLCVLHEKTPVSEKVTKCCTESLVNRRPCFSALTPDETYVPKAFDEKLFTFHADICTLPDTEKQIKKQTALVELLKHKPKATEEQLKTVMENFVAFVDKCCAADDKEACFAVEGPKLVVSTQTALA

Take `O=C(O)c1cn(C2CC2)c2cc(N3CCN(Cn4nc(N=Cc5ccccc5Br)sc4=S)CC3)c(F)cc2c1=O` [IV, 7-(4-((5-(2-bromobenzylideneamino)-2-thioxo-1,3,4-thiadiazol-3(2H)-yl)methyl)piperazin-1-yl)-1-cyclopropyl-6-fluoro-4-oxo-1,4-dihydroquinoline-3-carboxylic acid]: the “in vitro anti-inflammatory activity (in words)” value (BSA denaturation assay) is given as “considerable anti-inflammatory effect”. Besides, under setting [1], the inhibition at 20 µg/mL is 62.6%, the inhibition at 40 µg/mL is 73.1%, the inhibition at 60 µg/mL is 75.2% and the inhibition at 80 µg/mL was 82%. The inhibition at 100 µg/mL under setting [1] amounted to 84.8%.
